Measured values as given in patent US12577250B2, “1,2,4-triazolone derivative as DHODH inhibitor, and preparation method therefor and use thereof” (WIGEN BIOMEDICINE TECHNOLOGY (SHANGHAI) CO., LTD., priority 2021, dated 2026).
Like-named read-outs stand apart in the source and are kept apart here.

What was measured:
MV-4-11 cells = test: Anti-proliferative activity on MV-4-11 cells (CellTiter-Lumi, 72 h); type: cell-based; conditions: Homo sapiens, MV4-11, 72 h, read-out: Cell anti-proliferative activity IC50 MV-4-11
Procedure: MV-4-11 cells were seeded into a 384-well plate (Fisher 142762) at 3000 cells per well. The next day, serially diluted compounds were added, and 72 h after the addition, CellTiter-Lumi (Beyotime C0068XL) was added to measure the ATP content in the cells. The growth of the cells was evaluated, and IC50 of the compounds against cell growth was calculated.

DHODH = DHODH (Homo sapiens, UniProt Q02127); test: Assay against enzyme activity of DHODH (DCIP absorption at 600 nm); type: biochemical
Procedure: The enzyme activity of DHODH was assayed through a cascade reaction to determine its ability to catalyze the oxidation of a natural substrate DHO (dihydroorotic acid) to orotic acid while reducing coenzyme Q. The enzyme activity of DHODH was indirectly detected by assaying the ability of the coenzyme Q to reduce a chromogenic substrate DCIP. After the compound and an enzyme reaction mixture were incubated for 5 min, a reaction substrate DHO was added to start the reaction, and the enzyme activity was assayed by assaying the absorption at 600 nm to detect the DCIP exhaustion in a timed manner.

DHODH, sequence (Q02127 whole entry): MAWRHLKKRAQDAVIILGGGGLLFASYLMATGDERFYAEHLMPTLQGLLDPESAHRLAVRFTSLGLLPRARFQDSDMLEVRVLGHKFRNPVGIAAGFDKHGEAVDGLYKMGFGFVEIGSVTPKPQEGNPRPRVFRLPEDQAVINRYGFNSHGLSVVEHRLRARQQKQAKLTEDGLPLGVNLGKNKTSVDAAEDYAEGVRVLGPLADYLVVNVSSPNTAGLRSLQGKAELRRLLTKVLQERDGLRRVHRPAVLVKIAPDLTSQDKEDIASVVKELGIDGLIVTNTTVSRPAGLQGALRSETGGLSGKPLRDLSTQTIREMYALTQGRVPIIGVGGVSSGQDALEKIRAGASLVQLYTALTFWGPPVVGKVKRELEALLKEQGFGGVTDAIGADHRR

**Q.** Which results are given for `C[C@H](Oc1cc(-n2nc3n(c2=O)CCC2(CC2)C3)c(F)cc1C(=O)Nc1cc(Cl)ccc1F)C(F)(F)F` [Compound 20]?
**A.** IC50 (MV-4-11 cells; class symbols): ≤ 0.05 µM; IC50 (DHODH): < 0.05 µM

**Q.** For `Cc1cccc(C(F)(F)F)c1NC(=O)c1cc(F)c(-n2nc3n(c2=O)CCC2(CC2)C3)cc1O[C@@H](C)C(F)(F)F` [Compound 16], which IC50 (MV-4-11 cells; class symbols) is on record?
**A.** ≤ 0.05 µM

**Q.** And the IC50 (DHODH)?
**A.** < 0.05 µM

**Q.** Which IC50 (MV-4-11 cells; class symbols) does the source give for `C[C@H](Oc1cc(-n2nc3n(c2=O)CCC2(CC2)C3)c(F)cc1C(=O)Nc1c(F)cccc1Cl)C1CCC1` [Compound 45] here?
**A.** ≤ 0.05 µM

**Q.** And the IC50 (DHODH)?
**A.** < 0.05 µM

**Q.** What does the source list for `CC[C@H](C)Oc1cc(-n2nc3n(c2=O)CCC2(CC2)C3)c(F)cc1C(=O)Nc1c(F)cccc1Cl` [Compound 41]?
**A.** IC50 (MV-4-11 cells; class symbols): ≤ 0.05 µM; IC50 (DHODH): < 0.05 µM

**Q.** Which results are given for `Cc1cccnc1NC(=O)c1cc(F)c(-n2nc3n(c2=O)CCC2(CC2)C3)cc1O[C@@H](C)C(F)(F)F` [Compound 33]?
**A.** IC50 (MV-4-11 cells; class symbols): 0.05 to 0.5 µM; IC50 (DHODH): < 0.05 µM

**Q.** How did the IC50 (MV-4-11 cells; class symbols) turn out when `C[C@H](Oc1cc(-n2nc3n(c2=O)CCC2(CC2)C3)c(F)cc1C(=O)Nc1ccc(F)cc1Cl)C(F)(F)F` [Compound 21] was run?
**A.** ≤ 0.05 µM

**Q.** And the IC50 (DHODH)?
**A.** < 0.05 µM

**Q.** Which results are given for `C[C@H](Oc1cc(-n2nc3n(c2=O)CC2(CC2)C3)c(F)cc1C(=O)Nc1c(F)cccc1Cl)C(F)(F)F` [Compound 48]?
**A.** IC50 (MV-4-11 cells): 0.0107 µM; IC50 (DHODH): < 0.05 µM

**Q.** For `C[C@H](Oc1nc(-n2nc3n(c2=O)CCC2(CC2)C3)c(F)cc1C(=O)Nc1c(F)cccc1Cl)C1CCCCC1` [Compound 55], which IC50 (MV-4-11 cells) is on record?
**A.** 0.00145 µM

**Q.** And the IC50 (DHODH)?
**A.** < 0.05 µM

**Q.** `COc1cc(F)c(NC(=O)c2cc(F)c(-n3nc4n(c3=O)CCC3(CC3)C4)cc2O[C@@H](C)C(F)(F)F)c(F)c1` [Compound 30] was tested. Which IC50 (MV-4-11 cells; class symbols) did it give?
**A.** ≤ 0.05 µM

**Q.** And the IC50 (DHODH)?
**A.** < 0.05 µM

**Q.** `COc1nccc(Cl)c1NC(=O)c1cc(F)c(-n2nc3n(c2=O)CCC2(CC2)C3)cc1O[C@@H](C)C(F)(F)F` [Compound 37] was tested. Which IC50 (MV-4-11 cells) did it give?
**A.** 0.0105 µM

**Q.** And the IC50 (DHODH)?
**A.** < 0.05 µM

**Q.** `C[C@H](Oc1cc(-n2nc3n(c2=O)CCC2(CC2)C3)c(F)cc1C(=O)Nc1c(Cl)cccc1Cl)C(F)(F)F` [Compound 13] was tested. Which IC50 (MV-4-11 cells) did it give?
**A.** 0.00156 µM

**Q.** And the IC50 (DHODH)?
**A.** < 0.05 µM

**Q.** How did the IC50 (MV-4-11 cells; class symbols) turn out when `C[C@H](Oc1cc(-n2nc3n(c2=O)CCC2(CC2)C3)c(F)cc1C(=O)Nc1cccc(F)c1)C(F)(F)F` [Compound 9] was run?
**A.** ≤ 0.05 µM

**Q.** What about the IC50 (DHODH) of the same molecule?
**A.** < 0.05 µM

**Q.** Which results are given for `COc1ccnc(C)c1NC(=O)c1cc(F)c(-n2nc3n(c2=O)CCC2(CC2)C3)cc1O[C@@H](C)C(F)(F)F` [Compound 35]?
**A.** IC50 (MV-4-11 cells): 0.00679 µM; IC50 (DHODH): < 0.05 µM

**Q.** What does the source list for `C[C@H](Oc1cc(-n2nc3n(c2=O)CCC2(CC2)C3)c(F)cc1C(=O)Nc1c(F)cccc1Cl)C1CCCC1` [Compound 46]?
**A.** IC50 (MV-4-11 cells; class symbols): ≤ 0.05 µM; IC50 (DHODH): < 0.05 µM

**Q.** What does the source list for `COc1ncc(C)c(NC(=O)c2cc(F)c(-n3nc4n(c3=O)CCC3(CC3)C4)nc2O[C@@H](C)C2CCCCC2)c1Cl` [Compound 58]?
**A.** IC50 (MV-4-11 cells): 0.00075 µM; IC50 (DHODH): < 0.05 µM

**Q.** What does the source list for `CCC[C@H](C)Oc1nc(-n2nc3n(c2=O)CCC2(CC2)C3)c(F)cc1C(=O)Nc1c(C)cnc(OC)c1Cl` [Compound 59]?
**A.** IC50 (MV-4-11 cells): 0.00205 µM; IC50 (DHODH): < 0.05 µM

**Q.** Which IC50 (MV-4-11 cells; class symbols) does the source give for `C[C@H](Oc1cc(-n2nc3n(c2=O)CCC2(CC2)C3)c(F)cc1C(=O)Nc1c(F)cccc1Cl)C1CCCCC1` [Compound 47] here?
**A.** ≤ 0.05 µM

**Q.** And the IC50 (DHODH)?
**A.** < 0.05 µM

**Q.** How did the IC50 (MV-4-11 cells) turn out when `Cc1cccc(F)c1NC(=O)c1cc(F)c(-n2nc3n(c2=O)CCC2(CC2)C3)cc1O[C@@H](C)C(F)(F)F` [Compound 11] was run?
**A.** 0.00213 µM

**Q.** `C[C@H](Oc1cc(-n2nc3n(c2=O)CCC2(CC2)C3)c(F)cc1C(=O)Nc1ccccc1F)C(F)(F)F` [Compound 2] was tested. Which IC50 (MV-4-11 cells) did it give?
**A.** 0.00456 µM

**Q.** Which IC50 (MV-4-11 cells) does the source give for `C[C@H](Oc1cc(-n2nc3n(c2=O)CCC2(CC2)C3)c(F)cc1C(=O)Nc1c(F)cccc1F)C(F)(F)F` [Compound 10] here?
**A.** 0.00224 µM

**Q.** Which IC50 (MV-4-11 cells) does the source give for `COc1cccc(C)c1NC(=O)c1cc(F)c(-n2nc3n(c2=O)CCC2(CC2)C3)cc1O[C@@H](C)C(F)(F)F` [Compound 15] here?
**A.** 0.00342 µM

**Q.** For `Cc1cccc(N)c1NC(=O)c1cc(F)c(-n2nc3n(c2=O)CCC2(CC2)C3)cc1O[C@@H](C)C(F)(F)F` [Compound 17], which IC50 (MV-4-11 cells; class symbols) is on record?
**A.** ≤ 0.05 µM

**Q.** `COc1cccc(C)c1NC(=O)c1cc(F)c(-n2nc3n(c2=O)CCC2(CC2)C3)cc1O[C@@H](C)C(F)(F)F` [Compound 18] was tested. Which IC50 (MV-4-11 cells; class symbols) did it give?
**A.** ≤ 0.05 µM
